The results in this text go back to article PMC3133966 (Nature neuroscience, 2011).

The target of test [1] is T1, KCNQ5 (Kv7.5); presynaptic KCNQ5 homomers (Rattus norvegicus, UniProt F1LY25). The experiment in a line: whole-cell patch clamp of rat calyx of Held, outward K+ current. To be noted: read-out: % inhibition at 100 μM. It counts as cell-based.
The target in test [2] is T1, KCNQ5 (Kv7.5); presynaptic KCNQ5 homomers. Described as above. It counts as cell-based. To be noted: read-out: % of control current remaining at 10 μM.

T1 sequence (F1LY25 1-951): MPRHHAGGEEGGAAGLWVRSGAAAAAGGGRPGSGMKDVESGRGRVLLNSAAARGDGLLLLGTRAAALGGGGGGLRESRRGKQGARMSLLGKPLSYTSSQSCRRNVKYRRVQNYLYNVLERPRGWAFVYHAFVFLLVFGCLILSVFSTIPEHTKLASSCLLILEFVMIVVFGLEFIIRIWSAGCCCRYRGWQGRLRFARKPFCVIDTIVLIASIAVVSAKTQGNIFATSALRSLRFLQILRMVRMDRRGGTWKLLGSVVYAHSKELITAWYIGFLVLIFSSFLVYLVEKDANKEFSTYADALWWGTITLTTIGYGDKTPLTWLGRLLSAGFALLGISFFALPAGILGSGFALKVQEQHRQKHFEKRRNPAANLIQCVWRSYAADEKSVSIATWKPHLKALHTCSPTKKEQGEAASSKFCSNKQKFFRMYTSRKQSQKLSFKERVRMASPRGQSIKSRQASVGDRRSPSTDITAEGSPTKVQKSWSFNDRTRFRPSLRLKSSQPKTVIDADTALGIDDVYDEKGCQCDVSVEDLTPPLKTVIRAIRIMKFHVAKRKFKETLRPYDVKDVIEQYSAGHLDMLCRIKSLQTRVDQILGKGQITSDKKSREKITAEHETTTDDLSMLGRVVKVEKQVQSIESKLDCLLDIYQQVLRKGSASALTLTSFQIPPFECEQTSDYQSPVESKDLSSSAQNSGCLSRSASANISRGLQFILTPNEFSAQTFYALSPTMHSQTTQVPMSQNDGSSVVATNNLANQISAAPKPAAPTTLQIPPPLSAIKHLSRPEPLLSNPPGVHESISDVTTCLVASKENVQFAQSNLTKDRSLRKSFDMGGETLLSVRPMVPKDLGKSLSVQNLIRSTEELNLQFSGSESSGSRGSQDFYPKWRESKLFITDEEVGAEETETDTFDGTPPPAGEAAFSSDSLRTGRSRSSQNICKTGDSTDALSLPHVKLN

Take `O=C(O)Cc1ccccc1Nc1c(Cl)cccc1Cl` [diclofenac]: the inhibition at 100 µM in test [1] was 53 ± 4%.

For `O=C1N(c2ccccc2)c2ccccc2C1(Cc1ccncc1)Cc1ccncc1` [linopirdine], the remaining activity at 10 µM in test [2] was determined as 17 ± 4%.
